Assay [1] deals with RAD51 foci in 293 human embryonic kidney (HEK) cells. The experiment in a line: RAD51 foci formation. The format is cell-based. On the procedure: 2×10^5 log phase HEK-GFP cells were seeded in 3.5-cm tissue culture plates on glass coverslips pretreated with 0.01% poly-L-lysine (Sigma) and grown overnight. […] Cells were then exposed to 0.5 Gy IR using a Primus Linear Accelerator (Siemens) at […], 3 Gy/min followed by a 2-h incubation at 37° C. Cells were washed with phosphate-buffered saline (PBS) (8.1 mM Na2HPO4, 1.47 mM KH2PO4, 138 mM NaCl and 2.7 mM KCl, pH 7.4), extracted with PBS containing 0.2% Triton X-100 and 1 mM phenylmethanesulfonylfluoride (PMSF) for 5 min at 4° C., and fixed with PBS supplemented with 3.0% formaldehyde and 2.0% sucrose for 10 min. Cells were permeabilized with PBS containing 0.5% Triton X-100 for 5 min and blocked with PBS containing 3% BSA and 0.05% Tween 20 for 30 min at 23° C. Cells were treated with the polyclonal rabbit RAD51 antibodies (1:500 dilution) (a gift from Dr. Golub, Yale University) in PBS containing 3% BSA and 0.05% Triton X-100 overnight at 4° C., and then with Alexa Fluor 488 donkey antirabbit IgG (H+L) antibodies (1:1000 dilution) (Invitrogen) for 1 h at 23° C. followed by a 5-min staining with 500 ng/ml 4′,6-diamidino-2-phenylindole (DAPI) in PBS containing 0.05% Tween 20. Samples were washed in PBS containing 0.05% Tween 20, mounted in VectaShield™ (Vector Laboratories), and sealed with nail polish. The fluorescence images were obtained using an Olympus IX70 inverted microscope and iVision-Mac™ software (BioVision).

The target of the next assay is T1, RecA (Escherichia coli, UniProt P0A7G6).
T1 construct: purchased USB Inc. (Cleveland, Ohio)
T1 sequence (P0A7G6 whole entry): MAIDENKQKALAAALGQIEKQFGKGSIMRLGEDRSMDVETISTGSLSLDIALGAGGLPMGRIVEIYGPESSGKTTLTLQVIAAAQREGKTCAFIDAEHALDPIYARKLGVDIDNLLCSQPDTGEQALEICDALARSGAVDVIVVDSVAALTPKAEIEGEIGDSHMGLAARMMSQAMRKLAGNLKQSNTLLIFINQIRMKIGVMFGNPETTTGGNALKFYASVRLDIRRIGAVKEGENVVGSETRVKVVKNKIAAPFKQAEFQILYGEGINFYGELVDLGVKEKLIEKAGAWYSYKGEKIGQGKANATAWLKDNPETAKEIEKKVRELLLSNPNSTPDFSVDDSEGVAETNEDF
The experiment in a line: Branch migration assay, RecA. The format is biochemical, E. coli. Conditions: B02 10-100 μM.

In a further assay the target is T2, RAD51 (Homo sapiens, UniProt Q06609).
T2 construct: made in house
T2 sequence (Q06609 1-339): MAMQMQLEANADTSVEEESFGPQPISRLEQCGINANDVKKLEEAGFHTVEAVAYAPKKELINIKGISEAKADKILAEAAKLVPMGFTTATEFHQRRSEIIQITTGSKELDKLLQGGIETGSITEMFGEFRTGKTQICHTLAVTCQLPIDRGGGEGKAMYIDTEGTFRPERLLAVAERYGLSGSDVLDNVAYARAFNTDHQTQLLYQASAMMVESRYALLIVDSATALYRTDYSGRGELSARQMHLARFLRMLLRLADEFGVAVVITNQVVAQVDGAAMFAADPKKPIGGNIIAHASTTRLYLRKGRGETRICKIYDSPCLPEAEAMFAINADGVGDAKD
As to the kind of experiment: D-loop assay for RAD51. The conditions noted are these: compounds 100 μM; RAD51 1 μM. Format: biochemical. On the procedure:
When indicated, chemical compounds in question were added in specified concentrations and incubation was continued for 30 min at 37° C. D-loop formation was initiated by addition of supercoiled pUC19 dsDNA (50 μM, nt) and continued for 15 min. Reactions were stopped by addition of SDS to 1% (w/v) and proteinase K to 880 μg ml^−1 followed by incubation for 15 min at 37° C. […] The yield of joint molecules was expressed as a percentage of the total plasmid DNA.
The reaction was deproteinized and analyzed as described above.
IC50 values were calculated using GraphPad Prism V5.0 software and the sigmoidal dose-response function. The data were obtained from three independent repeats of experiments.

In another assay the test system is pUC19 supercoiled dsDNA. As to the kind of experiment: Ethidium bromide displacement assay. The format is binding. On the procedure:
The fluorescence of the sample was measured using a FlouroMax-3 fluorimeter at an excitation wavelength of 260 nm and an emission wavelength of 546 nm. Then, the small molecule inhibitors were added in increasing concentrations and allowed to equilibrate for 1 min, followed by the fluorescence measurement.

Experimental for RecA: Branch migration was initiated by addition of ^32P-labeled 5′-joint molecules (0.1 nM, molecules) that were produced by RecA-promoted reaction and was carried out for 30 min. The DNA products were deproteinized and analyzed in 1.5% agarose-TAE gels and quantified using a Storm 840 PhosphorImager (GE Healthcare).

On to `O=c1c2ccccc2nc(/C=C/c2cccnc2)n1Cc1ccccc1` [Compound B02, (E)-3-benzyl-2-(2-(pyridin-3-yl)vinyl)quinazolin-4(3H)-one], for which the “inhibition of IR-induced RAD51 foci formation, in words” value in assay [1] (B02 20 μM) was “inhibitory effect was smaller”. Moreover, in assay [1] (B02 50 μM), the “decrease of average number of RAD51 foci per nucleus” value was 4.4 fold and the “decrease of fraction of cells with RAD51 foci” value was found to be 3.8 fold. Further, the “fraction of cells with RAD51 foci (≧1 focus)” value in assay [1] (B02 50 μM, 0.5 Gy IR, without B02 72±10%) is on record as 19±6%. The “average number of RAD51 foci per nucleus” value in assay [1] (B02 50 μM, without B02 53±11) came to 12±4. For the same molecule, the “inhibition of branch migration activity of RecA” value against RecA is listed as “did not inhibit”. On RAD51, the “Joint Molecules (%)” value was 6.0 ± 0.5%. Moreover, the “DNA binding, result in words” value in the assay with pUC19 supercoiled dsDNA is on record as “not to bind DNA”.

Values taken from patent US9750742B2, “Small molecular inhibitors of RAD51 recombinase and methods thereof” (Drexel University, priority 2011, dated 2017).
